Legend:
Format in all cases: in vivo
Scirpus juncoides = experiment: Test Example 1: herbicidal activity, application before weed generation in submerged conditions (symbol B); conditions: application herbicide amount 320 g/ha
How it was run: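 Weed control was rated three weeks after treatment on a 0–5 scale, from 5% or lower up to 90% or more. Pre-emergence water-surface application of diluted emulsion at a predetermined rate was made on the day of sowing, in flooded (4 cm water) pots containing rice seedlings, kept at 25–30 °C under glass.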

Setaria viridis = experiment: Test Example 4: herbicidal effect by soil treatment (symbol G); conditions: for Herbicidal effect grade, G: Setaria viridis: application herbicide amount 320 g/ha
How it was run: (§1)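 Seeds were sown in sterilized diluvial soil, covered with about 1.5 cm of soil, and the soil surface was sprayed with a water-diluted emulsion of the compound at a predetermined rate. Plants grew in a greenhouse at 25° C. to 30° C.; effects were scored visually 3 weeks after application.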

Avena fatua = experiment: Test Example 4: herbicidal effect by soil treatment (symbol I); conditions: for Herbicidal effect grade, I: Avena fatua: application herbicide amount 320 g/ha
How it was run: as §1

Alopecurus myosuroides [1] = experiment: Test Example 4: herbicidal effect by soil treatment (symbol J); conditions: for Herbicidal effect grade, J: Alopecurus myosuroides: application herbicide amount 320 g/ha
How it was run: as §1

Apera spica-venti = experiment: Test Example 4: herbicidal effect by soil treatment (symbol L); conditions: for Herbicidal effect grade, L: Apera spica-venti: application herbicide amount 320 g/ha
How it was run: as §1

Abutilon theophrasti = experiment: Test Example 4: herbicidal effect by soil treatment (symbol M); conditions: for Herbicidal effect grade, M: Abutilon theophrasti: application herbicide amount 320 g/ha
How it was run: as §1

Stellaria media = experiment: Test Example 4: herbicidal effect by soil treatment (symbol P); conditions: for Herbicidal effect grade, P: Stellaria media: application herbicide amount 320 g/ha
How it was run: as §1

Veronica persica = experiment: Test Example 4: herbicidal effect by soil treatment (symbol R); conditions: for Herbicidal effect grade, R: Veronica persica: application herbicide amount 320 g/ha
How it was run: as §1

soybean = experiment: Test Example 4: effect on crop by soil treatment (symbol d); conditions: for Effect on crop grade, d: soybean: application herbicide amount 320 g/ha
How it was run: (§2)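 Sterilized diluvial soil, spot sowing, ~1.5 cm soil cover; greenhouse 25–30° C.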

rice = experiment: Test Example 4: effect on crop by soil treatment (symbol b); conditions: for Effect on crop grade, b: directly sowed rice plant: application herbicide amount 320 g/ha
How it was run: as §2

wheat = experiment: Test Example 4: effect on crop by soil treatment (symbol e); conditions: for Effect on crop grade, e: wheat: application herbicide amount 320 g/ha
How it was run: as §2

Digitaria ciliaris = experiment: Test Example 5: herbicidal effect by foliage application, plastic box (symbol F); conditions: 320 g/ha, 3 weeks after application
How it was run: (§3)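 Greenhouse foliar test: seedlings at 14 days, grown 25° C. to 30° C. in sterilized diluvial soil; compound applied as an aqueous dilution of an emulsion; response read 3 weeks after spraying.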

[2] = system: Echinochloa crus-galli var. crus-galli; experiment: Test Example 5: herbicidal effect by foliage application, plastic box (symbol H); conditions: 320 g/ha, 3 weeks after application
How it was run: as §3

Alopecurus myosuroides [3] = experiment: Test Example 5: herbicidal effect by foliage application, plastic box (symbol J); conditions: 320 g/ha, 3 weeks after application
How it was run: as §3

Chenopodium album = experiment: Test Example 5: herbicidal effect by foliage application, plastic box (symbol O); conditions: 320 g/ha, 3 weeks after application
How it was run: as §3

rice plant = experiment: Test Example 5: effect on crop by foliage application, plastic box (symbol b); conditions: 320 g/ha, 3 weeks after application
How it was run: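 In a plastic box 7 cm deep filled with sterilized diluvial soil, seeds of crops and weeds such as Digitaria ciliaris, Avena fatua and Amaranthus retroflexus are sown in spots and covered with about 1.5 cm of soil before greenhouse growth at 25–30° C.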

Structure (SMILES)	B (Scirpus juncoides) herbicidal effect grade (Scirpus juncoides)	Herbicidal effect grade, G: Setaria viridis (Setaria viridis)	Herbicidal effect grade, I: Avena fatua (Avena fatua)	Herbicidal effect grade, J: Alopecurus myosuroides (Alopecurus myosuroides [1])	Herbicidal effect grade, L: Apera spica-venti (Apera spica-venti)	Herbicidal effect grade, M: Abutilon theophrasti (Abutilon theophrasti)	Herbicidal effect grade, P: Stellaria media (Stellaria media)	Herbicidal effect grade, R: Veronica persica (Veronica persica)	Effect on crop grade, d: soybean (soybean)	Effect on crop grade, b: directly sowed rice plant (rice)	Effect on crop grade, e: wheat (wheat)	F: Digitaria ciliaris, herbicidal effect grade (Digitaria ciliaris)	H: Echinochloa crus-galli var. crus-galli, herbicidal effect grade [2]	J: Alopecurus myosuroides, herbicidal effect grade (Alopecurus myosuroides [3])	O: Chenopodium album, herbicidal effect grade (Chenopodium album)	b: directly sowed rice plant, effect on crop grade (rice plant)	other results
CON=C(C)CC1CC(OC(=O)C#C[Si](C)(C)C)=C(c2c(C)cc(C)cc2C)C1=O (stereo not shown) [1-096]	–	–	–	–	–	–	–	–	–	–	–	–	–	–	–	–	Herbicidal effect grade, B: Scirpus juncoides (Scirpus juncoides): 5 (Herbicidal ratio of 90% or more (almost completely withered)); G: Setaria viridis, herbicidal effect grade (Setaria viridis; 320 g/ha): 5 (Herbicidal ratio of 90% or more (almost completely withered)); I: Avena fatua, herbicidal effect grade (Avena fatua; 320 g/ha): 3 (Herbicidal ratio of 40% or higher and lower than 70%); J: Alopecurus myosuroides, herbicidal effect grade (Alopecurus myosuroides [1]; 320 g/ha): 5 (Herbicidal ratio of 90% or more (almost completely withered)); L: Apera spica-venti, herbicidal effect grade (Apera spica-venti; 320 g/ha): 5 (Herbicidal ratio of 90% or more (almost completely withered)); M: Abutilon theophrasti, herbicidal effect grade (Abutilon theophrasti; 320 g/ha): 4 (Herbicidal ratio of 70% or higher and lower than 90%); P: Stellaria media, herbicidal effect grade (Stellaria media; 320 g/ha): 0 (Herbicidal ratio of 5% or lower (almost no effect)); R: Veronica persica, herbicidal effect grade (Veronica persica; 320 g/ha): 0 (Herbicidal ratio of 5% or lower (almost no effect)); d: soybean, effect grade on crop (soybean; 320 g/ha): 1 (Herbicidal ratio of 5% or higher and lower than 20%); b: directly sowed rice plant, effect grade on crop (rice; 320 g/ha): 5 (Herbicidal ratio of 90% or more (almost completely withered)); e: wheat, effect grade on crop (wheat; 320 g/ha): 3 (Herbicidal ratio of 40% or higher and lower than 70%); F: Digitaria ciliaris, herbicidal effect (criteria 0-5) (Digitaria ciliaris): 5 (Herbicidal ratio of 90% or more (almost completely withered)); H: Echinochloa crus-galli var. crus-galli, herbicidal effect (criteria 0-5) [2]: 5 (Herbicidal ratio of 90% or more (almost completely withered)); J: Alopecurus myosuroides, herbicidal effect (criteria 0-5) (Alopecurus myosuroides [3]): 5 (Herbicidal ratio of 90% or more (almost completely withered)); O: Chenopodium album, herbicidal effect (criteria 0-5) (Chenopodium album): 2 (Herbicidal ratio of 20% or higher and lower than 40%); b: directly sowed rice plant, effect on crop (criteria 0-5) (rice plant): 5 (Herbicidal ratio of 90% or more (almost completely withered))
CC#Cc1cc(C)c(C2=C(O)CC(CC(=NOC)C(C)C)C2=O)c(C)c1 (stereo not shown) [9-006]	4 (Herbicidal ratio of 70% or higher and lower than 90%)	5 (Herbicidal ratio of 90% or more (almost completely withered))	4 (Herbicidal ratio of 70% or higher and lower than 90%)	5 (Herbicidal ratio of 90% or more (almost completely withered))	5 (Herbicidal ratio of 90% or more (almost completely withered))	0 (Herbicidal ratio of 5% or lower (almost no effect))	0 (Herbicidal ratio of 5% or lower (almost no effect))	4 (Herbicidal ratio of 70% or higher and lower than 90%)	0 (Herbicidal ratio of 5% or lower (almost no effect))	5 (Herbicidal ratio of 90% or more (almost completely withered))	5 (Herbicidal ratio of 90% or more (almost completely withered))	5 (Herbicidal ratio of 90% or more (almost completely withered))	5 (Herbicidal ratio of 90% or more (almost completely withered))	5 (Herbicidal ratio of 90% or more (almost completely withered))	2 (Herbicidal ratio of 20% or higher and lower than 40%)	5 (Herbicidal ratio of 90% or more (almost completely withered))	–
CC#Cc1cc(C)c(C2=C(O)CC(CC(=NOCCOC)C3CC3)C2=O)c(C)c1 (stereo not shown) [9-021]	5 (Herbicidal ratio of 90% or more (almost completely withered))	5 (Herbicidal ratio of 90% or more (almost completely withered))	1 (Herbicidal ratio of 5% or higher and lower than 20%)	5 (Herbicidal ratio of 90% or more (almost completely withered))	5 (Herbicidal ratio of 90% or more (almost completely withered))	1 (Herbicidal ratio of 5% or higher and lower than 20%)	0 (Herbicidal ratio of 5% or lower (almost no effect))	3 (Herbicidal ratio of 40% or higher and lower than 70%)	0 (Herbicidal ratio of 5% or lower (almost no effect))	5 (Herbicidal ratio of 90% or more (almost completely withered))	3 (Herbicidal ratio of 40% or higher and lower than 70%)	5 (Herbicidal ratio of 90% or more (almost completely withered))	5 (Herbicidal ratio of 90% or more (almost completely withered))	5 (Herbicidal ratio of 90% or more (almost completely withered))	3 (Herbicidal ratio of 40% or higher and lower than 70%)	5 (Herbicidal ratio of 90% or more (almost completely withered))	–
CC(CC1CC(OC(=O)N2CCOCC2)=C(c2c(C)cc(-c3ccc(Cl)cc3)cc2C)C1=O)=NOCC(F)(F)F (mixture of isomers) [9-025]	1 (Herbicidal ratio of 5% or higher and lower than 20%)	0 (Herbicidal ratio of 5% or lower (almost no effect))	0 (Herbicidal ratio of 5% or lower (almost no effect))	0 (Herbicidal ratio of 5% or lower (almost no effect))	0 (Herbicidal ratio of 5% or lower (almost no effect))	0 (Herbicidal ratio of 5% or lower (almost no effect))	0 (Herbicidal ratio of 5% or lower (almost no effect))	0 (Herbicidal ratio of 5% or lower (almost no effect))	0 (Herbicidal ratio of 5% or lower (almost no effect))	0 (Herbicidal ratio of 5% or lower (almost no effect))	0 (Herbicidal ratio of 5% or lower (almost no effect))	5 (Herbicidal ratio of 90% or more (almost completely withered))	1 (Herbicidal ratio of 5% or higher and lower than 20%)	0 (Herbicidal ratio of 5% or lower (almost no effect))	0 (Herbicidal ratio of 5% or lower (almost no effect))	0 (Herbicidal ratio of 5% or lower (almost no effect))	–

Source: patent US11000033B2, “Ketone or oxime compound, and herbicide” (NISSAN CHEMICAL CORPORATION, priority 2014, dated 2021)
